Laboratory results: patent publication US7605121B2, “Oligopeptide lyophilisate, their preparation and use” (AEterna Zentaris GmbH, priority 1993, dated 2009)
Where a SMILES comes first, the peptide text is derived from it. [ ]: non-standard residue; d: D form. dPhe(4-Cl) = N[C@H](Cc1ccc(Cl)cc1)C(=O)O; d2Nal = N[C@H](Cc1ccc2ccccc2c1)C(=O)O; dCit = NC(=O)NCCC[C@@H](N)C(=O)O; d3Pal = N[C@H](Cc1cccnc1)C(=O)O

Columns and labels:
[1] = test system: endogenous hormone production (LH-FSH, oestradiol); assay: Suppression of endogenous hormone production in in-vitro fertilization treatment; format: in vivo, patients; conditions: treatment over 5 days; female sterility / in-vitro fertilization
From the text: The premature LH peaks cannot arise and the frequency of hyperstimulation syndrome should be reduced. In addition, less HMG is used in the 2nd phase of therapy, the ovulation triggering phase. This gives this in-vitro fertilization treatment a not inconsiderable cost advantage. In-vitro fertilization is, for example, used when a tube anomaly is present. To perform this treatment it is necessary to precisely monitor the cycle and to establish the time of ovulation as precisely as possible. This has hitherto only been achieved to a limited extent since preovulatory LH increase often occurred too early due to simulation with HMG/HCG, or was not maintained for a sufficiently long period. Avoidance of this premature increase is, however, of critical importance for the success of the treatment in order to precisely determine the time of fertilization. This reduces the physical and mental burden on the patient and makes optimum use of hospital logistics. To achieve this objective with great reliability it is necessary to suppress endogenous hormone production (LH-FSH, oestradiol) as completely as possible in order to simultaneously stimulate follicle maturation through administration of exogenous gonadotrophins (HMG/HCG) and to monitor the hormone status at any time. […]

[2] = Hydrolysis of terminal amide group in acid medium; format: physicochemical; conditions: acid medium (acetic acid solution)
Method: (§1) The solution is then diluted to a final concentration of 3% peptide, e.g., cetrorelix, with water for injection purposes and mannitol is added. Although it is stated in the literature that the terminal amide group hydrolyzes easily in acid medium, this was not found in the case of cetrorelix. Solutions prepared according to this method caused no difficulties during filtration. The correct amounts of active substance were always found.

[3] = Stability of aqueous solution / conventional sterilization; format: physicochemical
Method: It should be possible to administer the active substance subcutaneously in a dose of 0.1 to 20 mg. Aqueous solutions of the decapeptide are unstable, and, therefore, autoclaving in the container used to distribute it is not possible. […] To obtain an injectable solution it was therefore necessary to develop a lyophilizate.

[4] = Dissolution in 30% volume/volume acetic acid; format: physicochemical
Method: as §1

For `CC(=O)N[C@H](Cc1ccc2ccccc2c1)C(=O)N[C@H](Cc1ccc(Cl)cc1)C(=O)N[C@H](Cc1cccnc1)C(=O)N[C@@H](CO)C(=O)N[C@@H](Cc1ccc(O)cc1)C(=O)N[C@H](CCCNC(N)=O)C(=O)N[C@@H](CC(C)C)C(=O)N[C@@H](CCCNC(=N)N)C(=O)N1CCC[C@H]1C(=O)N[C@H](C)C(N)=O` [Cetrorelix] (Ac-[d2Nal][dPhe(4-Cl)][d3Pal]SY[dCit]LRP[dA]-NH2), the Suppression achieved [1] was “total suppression”, the “Hydrolysis of terminal amide group” value [2] was “not found” and the “Stability of aqueous solutions” value ([3]; aqueous solution, autoclaving in the container not possible) was “unstable”. The “Behaviour during conventional sterilization” value ([3]; conventional sterilization, prescribed conditions) was “tends to decompose” and the “Solubility in acetic acid” value [4] was “easily dissolved”.
